Laboratory results from US9217743B2, “Screening method utilizing thalidomide-targeting factor” (Tokyo Institute of Technology, priority 2009, dated 2015).
Positions count from the first letter of the chain named. “Also recorded” adds a separate entry of the source.

Columns and labels:
DDB1-V5-His = molecular target: T1, DDB1-V5-His (Homo sapiens, UniProt Q16531); experiment: In vitro binding assay of purified recombinant protein with thalidomide-immobilized beads
T1 construct: made in house; host or cells: Sf9 insect cells (Bac-to-bac baculovirus)
T1 sequence (Q16531 whole entry): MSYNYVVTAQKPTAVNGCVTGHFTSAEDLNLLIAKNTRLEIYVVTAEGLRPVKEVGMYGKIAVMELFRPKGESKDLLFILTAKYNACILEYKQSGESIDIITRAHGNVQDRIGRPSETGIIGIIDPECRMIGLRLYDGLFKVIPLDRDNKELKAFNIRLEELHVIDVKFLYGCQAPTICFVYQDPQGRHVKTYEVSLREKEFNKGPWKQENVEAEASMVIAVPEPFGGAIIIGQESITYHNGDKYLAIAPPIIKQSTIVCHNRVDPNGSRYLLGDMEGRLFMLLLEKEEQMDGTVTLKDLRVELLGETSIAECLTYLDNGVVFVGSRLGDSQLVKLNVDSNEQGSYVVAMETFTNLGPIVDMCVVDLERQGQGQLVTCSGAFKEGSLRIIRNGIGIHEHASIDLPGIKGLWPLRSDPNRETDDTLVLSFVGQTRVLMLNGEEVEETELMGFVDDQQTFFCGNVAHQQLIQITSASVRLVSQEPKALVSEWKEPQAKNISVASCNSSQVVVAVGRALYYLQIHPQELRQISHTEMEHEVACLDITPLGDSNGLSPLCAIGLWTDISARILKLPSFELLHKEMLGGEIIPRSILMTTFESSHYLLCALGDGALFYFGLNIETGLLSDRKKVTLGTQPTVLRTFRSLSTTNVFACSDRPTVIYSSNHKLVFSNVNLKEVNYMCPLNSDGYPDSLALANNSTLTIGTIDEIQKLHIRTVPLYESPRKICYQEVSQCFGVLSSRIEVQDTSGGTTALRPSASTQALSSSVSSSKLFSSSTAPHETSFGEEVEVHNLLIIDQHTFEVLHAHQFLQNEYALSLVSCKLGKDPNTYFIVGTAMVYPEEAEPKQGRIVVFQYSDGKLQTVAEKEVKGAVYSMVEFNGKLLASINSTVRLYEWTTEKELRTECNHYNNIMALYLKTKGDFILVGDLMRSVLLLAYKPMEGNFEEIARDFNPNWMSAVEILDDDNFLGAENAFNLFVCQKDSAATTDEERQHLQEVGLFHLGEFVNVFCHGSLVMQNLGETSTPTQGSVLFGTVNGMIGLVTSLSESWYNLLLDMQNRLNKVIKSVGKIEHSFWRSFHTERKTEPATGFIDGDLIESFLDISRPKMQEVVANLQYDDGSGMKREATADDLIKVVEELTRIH
Source text: (§1) Recombinant CRBN-FLAG and DDB1-V5-His proteins were expressed in the insect Sf9 cells by using the Bac-to-bac baculovirus expression system (Invitrogen) and purified using anti-FLAG M2 agarose beads (Sigma) and Ni-NTA agarose beads (Qiagen), respectively. Purified CRBN-FLAG and/or DDB1-V5-His were mixed with thalidomide-immobilized beads, and the bound proteins were eluted with an SDS sample buffer. For analysis of CRBN-deletion mutant, GST-fused CRBN and its mutants were expressed in E. coli BL21 and purified using glutathione Sepharose (GE Healthcare). CRBN mutants were overexpressed in 293T cells by transfection using Lipofectamine 2000 (Invitrogen). Subsequent binding assays were carried out as described above.

CRBN W386A = molecular target: T2, CRBN W386A (Homo sapiens, UniProt Q96SW2, W386A); experiment: Binding of CRBN point mutant from 293T extracts to thalidomide-immobilized beads
T2 construct: expressed in transfected cells; host or cells: 293T
T2 sequence (Q96SW2 whole entry W386A): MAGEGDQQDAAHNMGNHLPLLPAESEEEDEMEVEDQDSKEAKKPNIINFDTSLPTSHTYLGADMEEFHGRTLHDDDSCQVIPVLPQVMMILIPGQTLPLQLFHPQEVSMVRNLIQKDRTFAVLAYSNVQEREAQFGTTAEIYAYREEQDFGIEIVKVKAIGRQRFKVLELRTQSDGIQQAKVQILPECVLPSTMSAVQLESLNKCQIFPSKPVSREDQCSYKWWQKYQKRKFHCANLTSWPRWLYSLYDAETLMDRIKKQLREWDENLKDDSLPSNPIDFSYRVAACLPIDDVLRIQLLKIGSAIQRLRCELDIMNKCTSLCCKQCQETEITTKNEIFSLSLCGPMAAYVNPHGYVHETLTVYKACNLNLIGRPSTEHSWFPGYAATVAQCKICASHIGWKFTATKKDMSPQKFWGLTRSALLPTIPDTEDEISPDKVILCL
Source text: (§2) First, thalidomide-binding region was investigated by using the N-terminal and C-terminal deletion mutants. […] The present inventors investigated whether this CRBN YW/AA functionally active in the cells. The subcellular localization of this mutant was indistinguishable from that of wild-type CRBN.
as §1

CRBN Y384A = molecular target: T3, CRBN Y384A (Homo sapiens, UniProt Q96SW2, Y384A); experiment: as above
T3 construct: expressed in transfected cells; host or cells: 293T
T3 sequence (Q96SW2 whole entry Y384A): as the sequence (Q96SW2 whole entry W386A) above, with Y384A, A386W counted along it
Source text: as §2, §1

CRBN YW/AA (Y384A/W386A) = molecular target: T4, CRBN YW/AA (Y384A/W386A) (Homo sapiens, UniProt Q96SW2, W386A/Y384A); experiment: Binding of CRBN double mutant from 293T extracts to thalidomide-immobilized beads
T4 construct: expressed in transfected cells; host or cells: 293T
T4 sequence (Q96SW2 whole entry Y384A/W386A): as the sequence (Q96SW2 whole entry W386A) above, with Y384A counted along it
Source text: as §2, §1

zCrbn = molecular target: T5, zCrbn (Danio rerio, UniProt Q68EH9, D160E); experiment: Binding of FH-zCrbn from 293T extracts to thalidomide beads; set-up: species or system zebrafish; conditions: FH-zCrbn in 293T extract
T5 construct: expressed in transfected cells; host or cells: 293T (stably expressing FH-zCrbn)
T5 sequence (Q68EH9 1-431 D160E): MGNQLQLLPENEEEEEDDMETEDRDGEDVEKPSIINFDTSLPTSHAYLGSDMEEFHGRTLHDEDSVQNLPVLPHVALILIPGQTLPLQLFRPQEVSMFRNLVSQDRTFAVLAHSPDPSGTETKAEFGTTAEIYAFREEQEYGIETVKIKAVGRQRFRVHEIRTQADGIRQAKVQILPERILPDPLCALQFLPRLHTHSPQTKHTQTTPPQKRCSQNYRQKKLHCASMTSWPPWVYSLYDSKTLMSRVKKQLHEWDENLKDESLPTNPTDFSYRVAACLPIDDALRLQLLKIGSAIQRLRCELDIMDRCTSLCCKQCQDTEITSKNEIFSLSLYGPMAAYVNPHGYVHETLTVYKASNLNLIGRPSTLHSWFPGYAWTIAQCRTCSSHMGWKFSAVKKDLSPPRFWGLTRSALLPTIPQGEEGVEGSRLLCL
Procedure: (§3) FIG. 14 relates to biochemical analysis results of zCrbn. […] Bound proteins were eluted by thalidomide, and eluate were analyzed by western blotting. zCrbn bound to thalidomide. (B) Lysate from 293T cells overexpressing FH-zCrbn was immunoprecipitated with anti-FLAG antibody, and DDB1 was detected by western blotting. […] (C) Lysate from FLAG-zCrbn (wild type) or FLAG-zCrbn YW/AA overexpressed in 293T cells was mixed with thalidomide beads. For quantification, various amounts of input and eluate fraction were analyzed by western blotting.

zCrbn YW/AA = molecular target: T6, zCrbn YW/AA (Danio rerio, UniProt Q68EH9, W376A/Y374A); experiment: Binding of FLAG-zCrbn YW/AA from 293T lysate to thalidomide beads; set-up: species or system zebrafish; conditions: FLAG-zCrbn YW/AA in 293T lysate
T6 construct: expressed in transfected cells; host or cells: 293T
T6 sequence (Q68EH9 1-431 Y374A/W376A): T5 sequence (Q68EH9 1-431 D160E) with E160D, Y374A, W376A
Procedure: as §3
If so, its teratogenicity should be alleviated by expression of functionally active but thalidomide-binding-defective zCrbn. To examine this idea, the present inventors prepared mutants in which Y374 and W376 are substituted with alanine (corresponding to YW/AA in humans, namely Y384A/W386A). The zCrbn YW/AA has extremely low thalidomide-binding activity. In the absence of thalidomide, Overexpression of wild-type zCrbn or zCrbn YW/AA had no discernible effect on fin and otic vesicle development. […] Also thalidomide treatment of embryos overexpressing wild-type zCrbn reduced the size of otic vesicles to approximately 66% of the control size. […] Thalidomide-induced fin degeneration was also rescued by overexpression of zCrbn YW/AA.

[1] = molecular target: T7, CRBN-containing E3 complex (Homo sapiens, UniProt Q96SW2); experiment: Autoubiquitination in live cells, 293T cells stably expressing FH-CRBN; format: cell-based; conditions: thalidomide 10, 30 and 100 μM, with MG132
T7 construct: expressed in transfected cells; host or cells: 293T stably expressing FH-CRBN
T7 sequence (Q96SW2 whole entry): as the sequence (Q96SW2 whole entry W386A) above, with A386W counted along it
T7 sequence (Q16531 2-1140 partner limits assumed): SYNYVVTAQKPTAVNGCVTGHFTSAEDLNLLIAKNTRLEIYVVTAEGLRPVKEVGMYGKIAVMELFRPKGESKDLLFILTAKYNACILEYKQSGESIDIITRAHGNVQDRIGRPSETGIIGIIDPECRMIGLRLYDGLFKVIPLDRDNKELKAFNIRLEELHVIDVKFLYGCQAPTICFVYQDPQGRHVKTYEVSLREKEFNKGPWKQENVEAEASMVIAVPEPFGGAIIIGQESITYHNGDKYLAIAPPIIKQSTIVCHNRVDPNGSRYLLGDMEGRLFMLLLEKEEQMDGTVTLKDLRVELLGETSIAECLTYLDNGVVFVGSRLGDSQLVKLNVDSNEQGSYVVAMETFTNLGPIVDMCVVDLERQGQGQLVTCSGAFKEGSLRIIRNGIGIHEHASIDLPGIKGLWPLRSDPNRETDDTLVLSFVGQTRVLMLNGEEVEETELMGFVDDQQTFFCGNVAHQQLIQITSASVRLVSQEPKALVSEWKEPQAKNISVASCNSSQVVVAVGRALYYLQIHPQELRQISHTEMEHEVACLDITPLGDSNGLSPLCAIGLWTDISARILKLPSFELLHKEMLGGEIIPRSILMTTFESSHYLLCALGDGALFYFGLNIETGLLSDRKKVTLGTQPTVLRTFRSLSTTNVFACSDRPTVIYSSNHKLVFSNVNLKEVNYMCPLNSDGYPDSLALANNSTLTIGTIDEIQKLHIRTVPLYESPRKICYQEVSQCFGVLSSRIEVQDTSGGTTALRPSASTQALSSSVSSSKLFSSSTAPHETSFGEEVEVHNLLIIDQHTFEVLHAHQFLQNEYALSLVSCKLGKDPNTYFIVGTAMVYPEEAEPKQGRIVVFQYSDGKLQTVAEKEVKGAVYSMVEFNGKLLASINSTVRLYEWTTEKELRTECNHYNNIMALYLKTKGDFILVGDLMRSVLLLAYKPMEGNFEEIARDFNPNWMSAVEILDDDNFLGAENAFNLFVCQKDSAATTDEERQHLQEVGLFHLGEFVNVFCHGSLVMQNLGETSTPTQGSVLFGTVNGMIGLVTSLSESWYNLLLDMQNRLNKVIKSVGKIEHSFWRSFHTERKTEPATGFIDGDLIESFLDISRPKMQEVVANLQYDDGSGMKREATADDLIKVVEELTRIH
T7 sequence (Q13619 whole entry partner): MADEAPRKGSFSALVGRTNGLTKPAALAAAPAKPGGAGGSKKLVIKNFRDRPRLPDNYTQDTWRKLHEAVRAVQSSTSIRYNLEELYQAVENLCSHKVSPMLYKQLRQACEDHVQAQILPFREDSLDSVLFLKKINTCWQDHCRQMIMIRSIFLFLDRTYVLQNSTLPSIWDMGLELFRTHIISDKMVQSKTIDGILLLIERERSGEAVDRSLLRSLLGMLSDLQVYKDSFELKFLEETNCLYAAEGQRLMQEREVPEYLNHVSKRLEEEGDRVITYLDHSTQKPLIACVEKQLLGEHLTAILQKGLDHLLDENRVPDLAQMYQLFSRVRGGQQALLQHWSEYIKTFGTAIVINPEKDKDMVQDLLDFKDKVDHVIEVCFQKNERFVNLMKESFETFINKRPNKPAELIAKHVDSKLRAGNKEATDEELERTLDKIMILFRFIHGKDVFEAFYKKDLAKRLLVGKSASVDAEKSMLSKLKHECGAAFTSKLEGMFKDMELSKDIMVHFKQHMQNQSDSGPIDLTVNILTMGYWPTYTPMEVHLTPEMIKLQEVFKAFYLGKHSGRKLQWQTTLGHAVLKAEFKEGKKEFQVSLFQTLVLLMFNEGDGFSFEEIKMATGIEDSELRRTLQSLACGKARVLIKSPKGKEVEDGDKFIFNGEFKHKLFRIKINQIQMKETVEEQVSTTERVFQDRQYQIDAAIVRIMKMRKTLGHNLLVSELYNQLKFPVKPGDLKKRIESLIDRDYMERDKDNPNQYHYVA
T7 sequence (P62877 2-108 partner limits assumed): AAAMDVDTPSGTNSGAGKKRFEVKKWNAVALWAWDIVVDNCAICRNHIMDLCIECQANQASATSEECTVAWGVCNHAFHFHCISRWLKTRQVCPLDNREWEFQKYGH
Procedure: (§4) The present inventors examined whether thalidomide would inhibit ubiquitination of the CRBN-containing E3 complex. 293T cells stably expressing FH-CRBN or FH-CRBN YW/AA were treated with MG132 and thalidomide (10, 30, and 100 μM) at similar concentration relative to the therapeutic doses used in human.
(§5) The assays were performed as described (Cited Literature 38). 293T cells stably expressing FH-CRBN or its mutant were treated with 10 μM MG132 or DMSO (vehicle) for three hours. The cells lysate were prepared using RIPA buffer containing 25 μM MG132 and 10 mM N-ethylmaleimide. FH-CRBN was immunoprecipitated and analyzed as described above. Various concentrations of thalidomide were added to cells one hour prior to MG132 treatment.

CRBN YW/AA = molecular target: T8, CRBN YW/AA (Homo sapiens, UniProt Q96SW2, W386A/Y384A); experiment: Autoubiquitination in live cells, 293T cells stably expressing FH-CRBN YW/AA; format: cell-based; conditions: thalidomide 10, 30 and 100 μM, with MG132
T8 construct: expressed in transfected cells; host or cells: 293T stably expressing FH-CRBN YW/AA
T8 sequence (Q96SW2 whole entry Y384A/W386A): as the sequence (Q96SW2 whole entry W386A) above, with Y384A counted along it
T8 sequence (Q16531 2-1140 partner limits assumed): as the sequence (Q16531 2-1140 partner limits assumed) above
T8 sequence (Q13619 whole entry partner): as the sequence (Q13619 whole entry partner) above
T8 sequence (P62877 2-108 partner limits assumed): as the sequence (P62877 2-108 partner limits assumed) above
Procedure: as §4, §5

CRBN = CRBN (Homo sapiens, UniProt Q96SW2); experiment: Elution of CRBN from thalidomide-immobilized beads by test compound, Western blotting
CRBN, sequence (Q96SW2 whole entry): as the sequence (Q96SW2 whole entry W386A) above, with A386W counted along it
Procedure: Firstly, thalidomide-immobilized FG beads are prepared. The immobilized beads are mixed and incubated with extracts of CRBN-expressing cells or recombinant proteins for one hour or longer in a rotator at 5 rpm and 4° C. Then, after the beads are washed with a buffer, for example, a buffer containing a thalidomide derivative as a test substance is passed through the beads to see whether CRBN is eluted. Examples of a detection method include Western blotting, dot blotting, CBB staining, and silver staining.

DDB1 = experiment: Elution of DDB1 from thalidomide-immobilized beads by test compound, Western blotting; conditions: Example 6; 293T extracts; elution with 1 mM compound

Q: With `O=C1CCC(N2C(=O)c3ccccc3C2=O)C(=O)N1` (centres unmarked) [thalidomide] as the molecule, how does the “binding of thalidomide to recombinant DDB1-V5-His” value (DDB1-V5-His) read?
A: Its value is “indirectly via CRBN”.

Q: What about the “thalidomide binding of CRBN W386A” value (CRBN W386A) of the same molecule?
A: Its value is “defective”.

Q: And the “thalidomide binding of CRBN Y384A” value (CRBN Y384A)?
A: The value was “defective”.

Q: What about the “thalidomide-binding activity of CRBN YW/AA” value (CRBN YW/AA (Y384A/W386A)) of the same molecule?
A: Its value is “extremely low”.

Q: And the “binding of zCrbn to thalidomide” value (zCrbn)?
A: The value was “bound”.

Q: What about the “thalidomide-binding activity of zCrbn YW/AA” value (zCrbn YW/AA) of the same molecule?
A: Its value is “extremely low; also recorded: obviously weak”.

Q: And the “autoubiquitination of wild-type CRBN” value [1]?
A: The value was “potently inhibited; also recorded: suppressed”.

Q: What about the “autoubiquitination of CRBN YW/AA” value (CRBN YW/AA) of the same molecule?
A: Its value is “not affected”.

Q: What about the “CRBN eluted from thalidomide-immobilized beads by the compound” value (CRBN; 293T cell extracts, buffer containing 0.1 to 1 mM compound, one hour, Western blotting) of the same molecule?
A: The value was “eluted”.

Q: And the “CRBN in the eluate fraction” value (CRBN; Example 6, 293T extracts, elution with 1 mM compound)?
A: The value was “detected”.

Q: What about the “DDB1 in the eluate fraction” value (DDB1) of the same molecule?
A: The value was “detected”.
